Results: patent US6406709B1, “Method for inhibiting nematocyst discharge” (Nidaria Technology Ltd., priority 1997, dated 2002)

What was measured:
[1] = test system: Chrysaora quinquecirrha nematocysts; assay: Nematocyst discharge into human skin slides, Monterey Bay Aquarium; details: glycerol plus 0.2% diphenhydramine, exposure 10 to 15 seconds
Protocol: (§1) Normal human skin (HS) was obtained from neonatal elective circumcision. The skin was immediately placed into sterile phosphate buffered saline (PBS) containing antibiotic/antimycotic. The tissue was frozen embedded in Tissue-Tek™. The tissue was then sectioned into 50 μm sections using a cryostat. The sections were attached to glass slides coated with polylysine and maintained at −70° C. until time of use. All sections were examined to ensure that they were perpendicular to the plane of the epidermis, exposing cross-sections of epidermis, dermis and sub-cutaneous tissue.
(§2) The slides prepared and frozen as described above were thawed at room temperature. The slides were submersed in sea water for approximately 10 seconds and then attached to jellyfish or sea anemones tentacles for approximately 10 seconds. The tentacles were detached, the slides washed two times with PBS, and blocked using 5% Fetal Bovine serum (FBS), and 0.1% Triton X100 in PBS (blocking solution). All washing and incubation steps were conducted on a tilting shaker at room temperature. The slides were incubated in 10 mL of blocking solution containing a 1:2,500 dilution of the anti-toxin antibody for one hour. After incubation, the slides were washed five times for five minutes each wash with 100 mL of 0.1% TritonX100 in PBS (Wash solution). […]

[2] = test system: nematocysts of jellyfish or sea anemone tentacles; assay: Artemia adhesion/paralysis test of nematocyst discharge by tentacle fragments in sea water; assay type: cell-based
Protocol: To initially test inhibition of nematocyst discharge, the following test was performed. It is typical behavior for jellyfish or sea anemone tentacles to adhere to and paralyze newly hatched nauplii of Artemia sp. The adhesion and subsequent paralysis is characteristic of nematocyst discharge by the tentacles. Small 2 to 3 mm fragments of jellyfish or sea anemone tentacles were prepared and placed in a 12-well plate containing filtered sea water. The tentacle fragments were washed by changing the filtered sea water three times. One mL of filtered sea water was left in each well after the final wash. […] The 6 wells without the antihistamine served as controls. Ten Artemia sp. were added to each well in a total volume of between 50 and 100 uL of filtered sea water. After 2 minutes, the number of attached or paralyzed Artemia in each well was measured.

[3] = test system: Pelagia noctiluca nematocysts; assay: Nematocyst discharge into human skin slides, Monterey Bay Aquarium; details: glycerol plus 0.2% diphenhydramine, exposure 10 to 15 seconds
Protocol: as §1, §2

Auzelia nematocysts = assay: Nematocyst discharge into human skin slides; details: N=3 test, 3 each control; control discharged less than 100
Protocol: as §1, §2

[4] = test system: isolated nematocyst capsules; details: 50 mM CaCl2; cited from earlier work

Row | Compound | decrease of nematocyst discharge [1] | effect on the number of Artemia paralyzed by nematocysts ([2]; 0.02% in sea water, versus sea water alone) | Artemia paralyzed by nematocysts, all wells together ([2]; out of 64 Artemia, 50 of 64 without antihistamine) | reduction in nematocyst discharged [3] | decrease in nematocyst discharge (Auzelia nematocysts) | discharge of isolated nematocyst capsules [4]
1 | CN(C)CCOC(c1ccccc1)c1ccccc1.Cl [diphenhydramine, diphenhydramine hydrochloride] | 2.5-5 fold | significantly decreased | 11 | significant reduction | ten-fold decrease | –
2 | [Ca+2].[Cl-].[Cl-] [CaCl2] | – | – | – | – | – | do not discharge
